Measurements reported in patent US20230096137A1, “COMPOSITION FOR LITHOGRAPHY AND PATTERN FORMATION METHOD” (Mitsubishi Gas Chemical Company, Inc., priority 2020, published 2023).

Assay: Safe solvent solubility test of compound (PGMEA)
Assay type: physicochemical
Conditions: 23° C., ultrasonic 30 minutes, visual
Method: (1) Safe Solvent Solubility Test of Compound
The solubility of the compound in PGMEA was evaluated according to the following criteria using the amount dissolved in each solvent. The amount of dissolution was measured at 23° C. by precisely weighing the compound into a test tube, adding a target solvent so as to attain a predetermined concentration, applying ultrasonic waves for 30 minutes in an ultrasonic cleaner, and then visually observing the subsequent state of the fluid.
A: 5.0% by mass≤Amount of dissolution
B: 2.0% by mass≤Amount of dissolution<5.0% by mass
C: Amount of dissolution<2.0% by mass

Oc1ccc2c3c(ccc2c1)Oc1ccc2cc(O)ccc2c1C3c1cccc(I)c1 [XbisN-1]
Safety solvent solubility PGMEA: B (2.0% by mass≤Amount of dissolution<5.0% by mass)

CC(C)(COc1c(I)cc(N2CC=CC2)cc1I)COc1c(I)cc(N2CC=CC2)cc1I [BMI-1]
Safety solvent solubility PGMEA: A (5.0% by mass≤Amount of dissolution)

Oc1ccc(-c2ccc(O)c(C(c3cc(-c4ccc(O)cc4)ccc3O)c3cc(I)cc(I)c3O)c2)cc1 [BisB-2]
Safety solvent solubility PGMEA: A (5.0% by mass≤Amount of dissolution)

Oc1ccc2c3c(ccc2c1I)Oc1ccc2c(I)c(O)ccc2c1C3c1ccc(-c2ccccc2)cc1 [XBisN-3]
Safety solvent solubility PGMEA: A (5.0% by mass≤Amount of dissolution)

Oc1ccc2c3c(ccc2c1)Oc1ccc2cc(O)ccc2c1C3c1ccc(-c2ccccc2)cc1 [XBisN-C1, reference compound]
Safety solvent solubility PGMEA: B (2.0% by mass≤Amount of dissolution<5.0% by mass)

Cc1cc(C(c2ccc(I)cc2)c2cc(C)c(O)c(C)c2)cc(C)c1O [BisB-1]
Safety solvent solubility PGMEA: A (5.0% by mass≤Amount of dissolution)
